Test systems include SK-MEL-2 melanoma; SF-268 CNS; HL-60(TB) leukemia; NCI-H460 lung; EKVX NSCLC; MOLT-4 leukemia; OVCAR-3 ovarian; OVCAR-5 ovarian; UO-31 renal.
Experiment in all cases: NCI anticancer screen, dose series, 48 h

SMILES strings stand for the structures. “And” between values parts separate entries of the source, which are not always exact repeats. Equal entries are not always repeated.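 Tested at 5 concentrations; 48 h exposure; 96-well plates; endpoints linearly interpolated, else capped at highest concentration. GI50 is the concentration that inhibits growth by half. TGI is the concentration that stops growth completely.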

Regarding `O=C(CCCCN1CCN(CCCCC(=O)Nc2ccccc2C#C/C=C\C#Cc2ccccc2C(F)(F)F)CC1)Nc1ccccc1C#C/C=C\C#Cc1ccccc1C(F)(F)F`, the GI50 in the experiment with SK-MEL-2 melanoma is 12.4 µM; with SF-268 CNS it was 12.3 µM; in the experiment on HL-60(TB) leukemia, 11.9 µM; in the experiment with NCI-H460 lung, 11.2 µM; with EKVX NSCLC, 18 µM; in the experiment on MOLT-4 leukemia it was 8.55 µM. Further, the GI50 was 10.6 µM in the experiment with OVCAR-3 ovarian, 14.4 µM in the experiment with OVCAR-5 ovarian and 11.8 µM in the experiment with UO-31 renal. In addition, the TGI was 29.9 µM with SK-MEL-2 melanoma; 32.9 µM in the experiment with SF-268 CNS; 24.6 µM in the experiment on HL-60(TB) leukemia; 25.5 µM in the experiment with NCI-H460 lung; over 50 µM with EKVX NSCLC; 27 µM in the experiment with MOLT-4 leukemia. The TGI with OVCAR-3 ovarian is 21.8 µM; in the experiment on OVCAR-5 ovarian it was over 50 µM; in the experiment with UO-31 renal, 48 µM.

As to `COc1ccc(-c2cnc(-c3ccncc3-c3cccc(OC)c3)o2)cc1`, the GI50 with SK-MEL-2 melanoma is 0.0397 µM; with SF-268 CNS, 0.0783 µM; in the experiment with HL-60(TB) leukemia, 0.024 µM; with NCI-H460 lung, 0.0365 µM; with EKVX NSCLC it was 1.04 µM; in the experiment on MOLT-4 leukemia, 0.0617 µM. The results for the GI50 in the experiment with OVCAR-5 ovarian and in the experiment on UO-31 renal were 0.0809 µM and 0.0896 µM, respectively. Moreover, the TGI is 15.2 µM with SK-MEL-2 melanoma; 16.9 µM in the experiment on SF-268 CNS; 0.0968 µM in the experiment with HL-60(TB) leukemia; 4.03 µM in the experiment with NCI-H460 lung; 25.1 µM in the experiment on EKVX NSCLC; 17.2 µM in the experiment with MOLT-4 leukemia. Moreover, the TGI in the experiment on OVCAR-5 ovarian was determined as 23.5 µM; in the experiment with UO-31 renal, 14.2 µM.

Regarding `Cc1cc(OC2OC(CO)C(O)C(O)C2O)ccc1O` (stereo not given), the TGI in the experiment with SK-MEL-2 melanoma, in the experiment with SF-268 CNS, with HL-60(TB) leukemia, with NCI-H460 lung, in the experiment with EKVX NSCLC and in the experiment on MOLT-4 leukemia was over 100 µM throughout. Also, the TGI with OVCAR-3 ovarian, in the experiment on OVCAR-5 ovarian and in the experiment with UO-31 renal was over 100 µM each time.

Take `CCOC(=O)c1cc(C(=O)c2ccc(OC)c(OC)c2)n2c1ccc1ccc3cccnc3c12`: the GI50 was 2.67 µM in the experiment with SK-MEL-2 melanoma; 4.62 µM in the experiment with SF-268 CNS; 2.78 µM with HL-60(TB) leukemia; 1.58 µM in the experiment on NCI-H460 lung; 4.14 µM in the experiment on EKVX NSCLC; 4.53 µM in the experiment on MOLT-4 leukemia. Further, the GI50 in the experiment on OVCAR-5 ovarian was 5.32 µM; with UO-31 renal it was 0.891 µM. For the same compound, the TGI was 66.6 µM with SK-MEL-2 melanoma; over 100 µM with SF-268 CNS; over 100 µM with HL-60(TB) leukemia; over 100 µM in the experiment on NCI-H460 lung; over 100 µM with EKVX NSCLC; over 100 µM with MOLT-4 leukemia. Besides, the TGI in the experiment on OVCAR-5 ovarian and in the experiment with UO-31 renal was over 100 µM each time.

With `Oc1cn(-c2ccc(Cl)cc2)nc1-c1n[nH]c(=S)n1-c1ccc(F)cc1`, the GI50 in the experiment with SK-MEL-2 melanoma is 34 µM; in the experiment with SF-268 CNS, 14.7 µM; with NCI-H460 lung it was 11.9 µM; in the experiment with EKVX NSCLC it was 27.5 µM; with MOLT-4 leukemia, 14.7 µM; in the experiment on OVCAR-3 ovarian it was 22 µM. For the same compound, the GI50 was 32 µM in the experiment with OVCAR-5 ovarian and 25 µM in the experiment on UO-31 renal. In addition, the TGI with SK-MEL-2 melanoma was over 100 µM; with SF-268 CNS, 70.8 µM; with NCI-H460 lung, 40.8 µM; in the experiment on EKVX NSCLC, 91.1 µM; in the experiment on MOLT-4 leukemia it was over 100 µM; with OVCAR-3 ovarian, over 100 µM. Also, the TGI with OVCAR-5 ovarian and in the experiment with UO-31 renal was over 100 µM throughout.

For the compound `Cc1ccc(C(=O)Nc2ccc(Oc3cc4cnn(C)c4cc3-c3cn[nH]c3)c(F)c2)c(=O)n1-c1ccc(F)cc1`, the GI50 was 18.1 µM in the experiment on SK-MEL-2 melanoma; 7.21 µM in the experiment with SF-268 CNS; 8.12 µM in the experiment with NCI-H460 lung; over 100 µM in the experiment on MOLT-4 leukemia; over 100 µM in the experiment with OVCAR-3 ovarian; 10.9 µM in the experiment on OVCAR-5 ovarian. Besides, in the experiment on UO-31 renal, the GI50 was over 100 µM. For the same compound, the TGI in the experiment on SK-MEL-2 melanoma, with SF-268 CNS, in the experiment on NCI-H460 lung, with MOLT-4 leukemia, in the experiment with OVCAR-3 ovarian and in the experiment on OVCAR-5 ovarian was over 100 µM in each case. In addition, the TGI in the experiment with UO-31 renal was over 100 µM.

Turning to `COc1ccc([C@@]23Oc4cc(OC)cc(OC)c4[C@]2(O)[C@H](O)[C@H](C(=O)N(C)C)[C@H]3c2ccccc2)cc1`, the GI50 in the experiment on SK-MEL-2 melanoma was 0.0225 µM; in the experiment with SF-268 CNS, 0.0152 µM; in the experiment on OVCAR-3 ovarian, 0.0164 µM; in the experiment with OVCAR-5 ovarian, 0.0116 µM; with UO-31 renal it was 0.0214 µM. Moreover, the TGI is 0.0938 µM and 0.0112 µM and 0.0709 µM in the experiment on SK-MEL-2 melanoma; 0.22 µM and 0.17 µM with EKVX NSCLC; 0.0626 µM and 0.0694 µM and 0.0417 µM in the experiment on OVCAR-5 ovarian.

On to `N=C(N)n1cc(/C=N/N=C(N)N)cn1`, for which the TGI with SF-268 CNS, in the experiment on HL-60(TB) leukemia, in the experiment on NCI-H460 lung, in the experiment with EKVX NSCLC, in the experiment on MOLT-4 leukemia and in the experiment on OVCAR-3 ovarian was over 100 µM each time. Further, the TGI in the experiment on OVCAR-5 ovarian and with UO-31 renal was over 100 µM in each case.

For the compound `[O-][n+]1c2cccc(O)c2[n+]([O-])c2cccc(O)c21`, the TGI with SF-268 CNS was over 100 µM; with HL-60(TB) leukemia, over 100 µM; in the experiment on NCI-H460 lung it was over 100 µM; in the experiment with EKVX NSCLC, 76.2 µM; in the experiment with MOLT-4 leukemia, over 100 µM; with OVCAR-3 ovarian, over 100 µM. Besides, the TGI in the experiment on OVCAR-5 ovarian and with UO-31 renal was over 100 µM throughout.

Take `OCc1ccc(-c2ccc(-c3ccc(CO)o3)o2)o1`: the GI50 in the experiment on SK-MEL-2 melanoma is 38.8 µM; with SF-268 CNS it was over 61.7 µM; in the experiment on HL-60(TB) leukemia, over 100 µM; in the experiment on NCI-H460 lung, over 100 µM; with MOLT-4 leukemia it was over 100 µM; in the experiment on OVCAR-3 ovarian, over 84.6 µM. Moreover, the GI50 was 0.641 µM with OVCAR-5 ovarian and over 100 µM in the experiment on UO-31 renal. Besides, the TGI in the experiment with SK-MEL-2 melanoma is 97.1 µM; in the experiment on SF-268 CNS, over 100 µM; in the experiment on HL-60(TB) leukemia it was over 100 µM; in the experiment with NCI-H460 lung, over 100 µM; with MOLT-4 leukemia, over 100 µM; in the experiment on OVCAR-3 ovarian, over 100 µM. Besides, the TGI was 3 µM with OVCAR-5 ovarian and over 100 µM in the experiment with UO-31 renal.

`O=C(CI)NC(=O)NC(=O)NCc1ccccc1`: the GI50 in the experiment with SK-MEL-2 melanoma was 7.5 µM; with SF-268 CNS, 4.4 µM; with NCI-H460 lung, 5.3 µM; in the experiment on EKVX NSCLC, 17.5 µM; in the experiment with MOLT-4 leukemia it was 0.969 µM; with OVCAR-3 ovarian, 1.82 µM. Besides, the GI50 with OVCAR-5 ovarian was 2.98 µM; with UO-31 renal it was 1.66 µM. Besides, the TGI in the experiment with SK-MEL-2 melanoma amounted to 21.6 µM; in the experiment on SF-268 CNS, 21.6 µM; in the experiment with NCI-H460 lung it was 23.4 µM; in the experiment on EKVX NSCLC, 39.6 µM; with MOLT-4 leukemia, 3.15 µM; in the experiment with OVCAR-3 ovarian, 3.37 µM. Also, the TGI in the experiment with OVCAR-5 ovarian was 10.8 µM; in the experiment on UO-31 renal it was 3.31 µM.
